{"source": "patent US20230065562A1", "about": "“DUAL CONTROLS FOR THERAPEUTIC CELL ACTIVATION OR ELIMINATION” (Bellicum Pharmaceuticals, Inc., priority 2015, published 2023)", "key": {"293 cells": {"system": "293 cells", "assay": "SEAP assay: iMC (tandem FKBP) scaffold plus FRBL2-Caspase-9", "assay_type": "cell-based", "settings": "tandem FKBPs (iMC) present", "method": "FIGS. 16A and 16B are line graphs showing that tandem FKBP scaffold mediates FRBL2. Caspase activation in the presence of rapalogs. FIG. 16A. HEK-293 cells were transfected with 1 μg each of SRα-SEAP reporter plasmid, Δmyr.iMC.2A-anti-CD19.CAR.CD3ζ (pBP0608), and FRBL2. Caspase-9 (pBP0467). […] After ON incubation, cell supernatants were assayed for SEAP activity, as previously described. FIG. 16B. Similar to the experiment described in (FIG. 16A), except that cells were transfected with a membrane-localized (myristoylated) iMC.2A-CD19.CAR.CD3ζ (pBP0609), instead of non-myristoylated Δmyr.iMC.2A-CD19.CAR.CD3ζ (pBP0608).\nIn a second test for rapalog-mediated scaffold-based activation of Caspase-9, 293 cells were transiently transfected with SRα-SEAP reporter plasmid, plus myristoylated or non-myristoylated inducible iMC co-expressed with 1st generation anti-CD19 CAR, plus FRBL2-fused Caspase-9 (plasmid pBP0467) (FIG. 16)."}, "293T cells": {"system": "293T cells", "assay": "SeAP reporter assay: FRBL-Caspase9 plus FKBPv12-Caspase9 heterodimerization", "assay_type": "cell-based", "settings": "FRBL-Caspase 9 plus FKBPV12-Caspase 9", "method": "HEK 293T cells (5×10^5) were seeded on a 100-mm tissue culture dish in 10 mL DMEM4500, supplemented with glutamine, penicillin/streptomycin and 10% fetal calf serum. After 16-30 hours incubation, cells were transfected using Novagen's GeneJuice® protocol. Briefly, for each transfection, 0.5 mL OptiMEM was pipetted into a 1.5-mL microcentrifuge tube and 15 μL GeneJuice reagent added followed by 5 sec. vortexing. Samples were rested 5 minutes to settle the GeneJuice suspension. DNA (5 μg total) was added to each tube and mixed by pipetting up and down four times. Samples were allowed to rest for 5 minutes for GeneJuice-DNA complex formation and the suspension added dropwise to one dish of 293T cells. […]\n24 hours after drug stimulation, 96-well plates were wrapped to prevent evaporation and incubated at 65° C. for 2 hours to inactivate endogenous and serum phosphatases while the heat-stable SeAP reporter remains (1, 4, 12). […] Phosphatase activity was measured by fluorescence with excitation at 355 nm and emission at 460 nm. […]\nFIG. 37—Drug induced programmed cell death by homodimerization or heterodimerization of tagged caspase 9. […] Reporter activity is expressed as a percentage of the average of 8 control wells containing no drug. […]\nFIG. 38—Rapalog-induced cell death switch. […] Reporter activity is expressed as a percentage of the average of 8 wells containing no drug. […]"}}, "data": [{"smiles": "COC1CC(CC(C)C2CC(=O)C(C)C=C(C)C(O)C(OC)C(=O)C(C)CC(C)C=CC=CC=C(C)C(OC(C)C)CC3CCC(C)C(O)(O3)C(=O)C(=O)N3CCCCC3C(=O)O2)CCC1O", "note": "(centres unmarked) [C7-isopropoxy-rapamycin, C7-isopropoxyrapamycin]", "values": [{"measurement": "activation of FRBL2-Caspase-9", "setting": "293 cells", "result": "activated"}, {"measurement": "cell death (loss of SeAP reporter)", "setting": "293T cells", "result": "dose-dependent high efficacy cell death switch"}]}]}
